This is an account of results in patent US20090041820A1, “Functional polymer compositions” (priority 2007, published 2009).

Molecules are shown by their SMILES.

Series [1] in a line: Solubility of triclosan in PAO carrier fluid. The class given is physicochemical. The note with it: PAO without ester.
Series [2] can be described thus: PAO/ester/triclosan migration from PP strips (weight loss, toluene wash, surface observation). The class given is physicochemical. The conditions noted are these: fast cooled PP strips. As to the method:
Preparation of sample 24892-114-0 to 7: The polypropylene described above (85% by weight) was melt blended in a mixer with 15 wt % triclosan stock solution as prepared in Table 2. The mixed polymer was then compression molded into 4″×4″ squares with less than 1 mm thickness. Two methods were used to prepare the PP strip with very different results. One method includes fast cooling after the compression molding (quench sample with a 7° C. cooling surface). The sample strip had PAO fluid on surface indicating fast PAO migration after a few hours at room temperature. The other method included slow cooling after the compression molding (cool sample in ambient air, 23° C.). Sample strip appeared very dry with no apparent PAO fluid on surface. When this sample was put into 70° C. oven, slight oiliness was observed on the surface.
Table 4 below depicts the PAO/ester/Triclosan migration from the PP strips as measured by weight loss in 7 days.
For fast cooled PP strips, there was up to 1.8 wt % weight loss by toluene wash due to PAO/ester/Triclosan migration to the surface.

As for `Oc1cc(Cl)ccc1Oc1ccc(Cl)cc1Cl` [Triclosan], in series [1], the “solubility in PAO alone” value is reported as “low solubility”. The “migration to the surface, confirmed by GC analysis of the toluene wash” value in series [2] was “migrated to the surface”.
